Reference: patent publication EP3381908A1, “2-(4-(4-(BROMO-METHOXYBENZAMIDO)BENZYLAMINO)PHENYL)BENZAZOLE DERIVATIVES AND THEIR USE AS ANTI-HEPARANASE” (Leadiant Biosciences SA, priority 2017, dated 2018)
Read-outs that look alike come from different tables or passages of the source.

What was measured:
heparanase = biological target: T1, heparanase (Homo sapiens, UniProt Q9Y251); assay: AGA*IA assay (fondaparinux cleavage, WST-1 colorimetric) for heparanase inhibition; format: biochemical
T1 sequence (Q9Y251 158-543 limits assumed): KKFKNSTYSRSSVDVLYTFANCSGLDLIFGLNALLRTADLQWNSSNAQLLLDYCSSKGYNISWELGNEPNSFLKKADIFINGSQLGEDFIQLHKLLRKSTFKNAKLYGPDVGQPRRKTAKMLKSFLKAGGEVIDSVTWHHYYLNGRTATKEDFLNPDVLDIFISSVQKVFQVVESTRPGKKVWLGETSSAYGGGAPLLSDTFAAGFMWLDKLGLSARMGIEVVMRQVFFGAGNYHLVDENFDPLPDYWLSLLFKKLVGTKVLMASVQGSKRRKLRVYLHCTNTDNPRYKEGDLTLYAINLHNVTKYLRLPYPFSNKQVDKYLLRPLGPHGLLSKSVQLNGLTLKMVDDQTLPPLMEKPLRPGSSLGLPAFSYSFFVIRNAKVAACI
T1 sequence (Q9Y251 36-109 limits assumed): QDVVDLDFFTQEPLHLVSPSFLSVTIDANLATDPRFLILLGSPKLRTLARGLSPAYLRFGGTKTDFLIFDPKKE
Procedure: All compounds were tested in a simple, accurate and robust microplate assay based on the cleavage of the synthetic heparin fragment, the pentasaccharide Fondaparinux (AGA*IA). This assay was originally developed by Hammond and coworkers [Hammond E, Li CP, Ferro V. Development of a colorimetric assay for heparanase activity suitable for kinetic analysis and inhibitor screening. […] Fondaparinux is cleaved by heparanase to generate a reducing disaccharide, which can be quantitatively measured via a colorimetric or a fluorescence assay, the last by the fluorescent sensor polymer-H [Schiemann S, Lühn S, Alban S. Development of both colorimetric and fluorescence heparinase activity assays using fondaparinux as substrate.
The assay measures the appearance of the disaccharide product of heparanase-catalyzed fondaparinux cleavage colorimetrically using the tetrazolium salt WST-1. Assay was essentially performed as described with minor modifications. Briefly, NUNC ELISA 96-well plates were pre-treated with a solution of 4% BSA (bovin serum albumin) in phosphate-buffered saline containing 0.05% Tween 20 (PBST), for 2 h at 37°C, then washed three times with PBST, dried by tapping on paper towel and stored at -20°C. Before use, once again, the plates were washed with PBST.
Then, the absorbance at 560 nm was measured through a microplate reader (Victor 3, Perkin Elmer).
Finally, the measurements were corrected by subtracting both the reagent background and the inner absorbance value of test compound. Table 2. IC50 value in AGA*IA assay, versus heparanase inhibition of selected compounds of present invention.

[1] = tested on: U87MG (human glioblastoma astrocytoma); assay: SRB Cell Cytotoxicity Assay, 72h; format: cell-based; details: Conc. 2.5 µM, N.I.: Not Inhibition
Procedure: (§4) SRB Cell Cytotoxicity Assay is an assay based upon the quantitative staining of cellular proteins by sulforhodamine B (SRB). […] Sulforhodamine B is an anionic aminoxanthene dye that forms an electrostatic complex with the basic amino acid residues of proteins under moderately acid conditions, which provides a sensitive linear response.
(§5) Inhibition of cell proliferation was then measured by the classical colorimetric SRB Cell Cytotoxicity assay. Absorbance was measured by spectrophotometer at a wavelength of 510 nm and cell proliferation was determined as percent with respect to control cells (cells treated with the vehicle alone). EC50 values were then determined by GraphPad Prism.

[2] = tested on: U2OS (human osteosarcoma); assay: SRB Cell Cytotoxicity Assay, 72h; format: cell-based; details: Conc. 2.5 µM, N.I.: Not Inhibition
Procedure: as §4, §5

[3] = tested on: HT1080 (human fibrosarcoma); assay: SRB Cell Cytotoxicity Assay, 72h; format: cell-based; details: Conc. 2.5 µM, N.I.: Not Inhibition
Procedure: as §4, §5

[4] = tested on: U87MG (human glioblastoma astrocytoma); assay: Matrigel cell invasion assay; format: cell-based
Procedure: (§1) Heparanase inhibitors were then evaluated for their activity on the invasive potential of HT1080 (human fibrosarcoma), U87MG (human glioblastoma astrocytoma) and U2OS (human osteosarcoma) human cell lines, using the Matrigel cell invasion assay which allows to assess the cell invasion ability of malignant and normal cells.
(§2) Invasion assay was performed using BioCoat cell culture inserts (BioCoat 8.0µm PET Membrane 24 Well Permeable Supports, Corning). Filters were coated with 100 µl of 300 µg/ml Matrigel dissolved in coating buffer (0.01M Tris pH 8.0, 0.7% NaCl) (Becton-Dickinson Sciences). DMEM (Dulbecco's Modified Eagle's Medium) containing 5% FBS was added to the lower chambers. Cells were pre-treated with heparanase inhibitors for 24 h, detached and added to the upper chambers in media containing the inhibitors. Cells were allowed to invade for 24 h at 37°C in a CO2 incubator and then unmigrated cells were removed from the upper chamber with a cotton swab. The invading cells were fixed, stained with 0.1% crystal violet for 10 min at room temperature, photographed and counted under inverted microscope.
(§3) Test compounds were analyzed at fixed concentration for several fields, in duplicates. Activity of test compounds was compared to the reference compound. Activity of most interesting compound was confirmed in a second cell invasion assay. Data were expressed as the percent invasion with respect to cell migration through uncoated insert membrane.

[5] = tested on: HT1080 (human fibrosarcoma); assay: Matrigel cell invasion assay; format: cell-based
Procedure: as §1, §2, §3

[6] = tested on: U2OS (human osteosarcoma); assay: Matrigel cell invasion assay; format: cell-based
Procedure: as §1, §2, §3

VEGF = assay: Real-Time Quantitative PCR of mRNA gene expression in HT1080 cells; details: 24 h, Conc 1.0 uM
Procedure: (§6) To evaluate the effect of heparanase inhibitors on the tumor transcription of genes encoding for proangiogenic factors, such as FGF1/2, VEGF, MMP-9, HSPE-1, the relative mRNA levels were analyzed by quantitative Real-Time Quantitative PCR.
(§7) To perform the assay, HT1080 (human fibrosarcoma) cells were cultured in complete medium containing 10%FCS (fetal calf serum). Cells were plated in 24-well plates and treated at fixed concentration (i.e., highest non-toxic concentration) of test compounds. After 24 h, cells were detached, collected and total RNA extracted by RNeasy Mini Kit (QIAGEN). Following reverse transcription step, FGF1/2, VEGF, MMP-9, HSPE-1 mRNA levels, were quantified by qPCR using the advanced Universal SYBR Green Supermix (Bio Rad) and ABI PRISM 7900HT Thermal Cycler System (Perkin Elmer), according to the manufacturer's instructions. […] Relative levels of RNA were calculated using the ddCt method. Standard curve and sample data were run in duplicate.

FGF-2 = assay: as above; details: 24 h, Conc 1.0 uM
Procedure: as §6, §7

FGF-1 = assay: as above; details: 24 h, Conc 1.0 uM
Procedure: as §6, §7

MMP-9 = assay: as above; details: 24 h, Conc 1.0 uM
Procedure: as §6, §7

[7] = Table 1, fluorinated vs non-fluorinated analogues
[8] = Table 3, fluorinated vs non-fluorinated derivatives, read-out: AGAIA assay IC50

Work on `COc1ccc(C(=O)Nc2ccc(CNc3ccc(-c4nc5cc(CC(=O)O)ccc5[nH]4)cc3F)cc2)cc1Br` [Compound 10, 2-(2-(4-((4-(3-bromo-4-methoxybenzamido)benzyl)amino)-3-fluorophenyl)-1H-benzo[d]imidazol-5-yl)acetic acid] yielded an IC50 (heparanase; [7]) of 2860 nM, an IC50 (heparanase; Table 2, class symbols) of 1000 to 20000 nM and an IC50 (heparanase; [8]) of 2860 nM.

For `COc1ccc(C(=O)Nc2ccc(CNc3ccc(-c4nc5cc(CC(=O)NCC(=O)O)ccc5[nH]4)cc3F)cc2)cc1Br` [Compound 15, 2-(2-(2-(4-((4-(3-bromo-4-methoxybenzamido)benzyl)amino)-3-fluorophenyl)-1H-benzo[d]imidazol-5-yl)acetamido)acetic acid], the “Concentration of test compounds at which the cell growth is inhibited by 50 % U87MG” value [1] was “N. I”, the “Concentration of test compounds at which the cell growth is inhibited by 50 % U2OS” value [2] was “N. I” and the “Concentration of test compounds at which the cell growth is inhibited by 50 % HT1080” value [3] was “N. I”. For the same compound, the “Invasion Assay U87MG” value ([4]; Conc. 2.5µM) was “+ (+ : < 50%)”, the “Invasion Assay HT1080” value ([5]; Conc. 2.5µM) was “+ (+ : < 50%)” and the “Invasion Assay U2OS” value ([6]; Conc. 2.5µM) was “+ (+ : < 50%)”. The IC50 (heparanase; Table 2, class symbols) was 500 to 990 nM.

For `Cc1ccc(C(=O)Nc2ccc(S(=O)(=O)O)c3cc(S(=O)(=O)O)cc(S(=O)(=O)O)c23)cc1NC(=O)c1cccc(NC(=O)Nc2cccc(C(=O)Nc3cc(C(=O)Nc4ccc(S(=O)(=O)O)c5cc(S(=O)(=O)O)cc(S(=O)(=O)O)c45)ccc3C)c2)c1` [Suramin, reference compound], the “Invasion Assay U87MG” value ([4]; Conc. 10µM) was “-”, the “Invasion Assay HT1080” value ([5]; Conc. 10µM) was “+ (+ : < 50%)” and the “Invasion Assay U2OS” value ([6]; Conc. 10µM) was “-”.

For `COc1ccc(C(=O)Nc2ccc(CNc3ccc(-c4nc5ccccc5[nH]4)cc3)cc2)cc1Br` [SST0408AA1, reference compound], the “Gene Expression (% mRNA vs. control) VEGF” value (VEGF) was “∼ 72%”, the “Gene Expression (% mRNA vs. control) FGF-2” value (FGF-2) was “∼ 92%” and the “Gene Expression (% mRNA vs. control) FGF-1” value (FGF-1) was “∼ 97%”. For the same compound, the “Gene Expression (% mRNA vs. control) MMP-9” value (MMP-9) was “∼ 69%”.

In the case of `COc1ccc(C(=O)Nc2ccc(CNc3ccc(-c4nc5cc(CC(=O)O)ccc5o4)cc3)cc2)cc1Br` [SST0915AA1, 2-(2-(4-((4-(3-bromo-4-methoxybenzamido)benzyl)amino)phenyl)benzo[d]oxazol-5-yl)acetic acid, reference compound], the IC50 (heparanase; [7]) is reported as greater than 10000 nM and the IC50 (heparanase; [8]) is reported as greater than 10000 nM.

`COc1ccc(C(=O)Nc2ccc(CNc3ccc(-c4nc5cc(CC(=O)O)ccc5[nH]4)cc3)cc2)cc1Br` [SST0914AA1, 2-(2-(4-((4-(3-bromo-4-methoxybenzamido)benzyl)amino)-phenyl)-1H-benzo[d]imidazol-5-yl)acetic acid, reference compound] gave an IC50 (heparanase; [7]) greater than 10000 nM and an IC50 (heparanase; [8]) greater than 10000 nM.

For `COc1ccc(C(=O)Nc2ccc(CNc3ccc(-c4nc5ccccc5[nH]4)cc3F)cc2)cc1Br` [Compound 22], the “Gene Expression (% mRNA vs. control) VEGF” value (VEGF) was “∼ 67%”, the “Gene Expression (% mRNA vs. control) FGF-2” value (FGF-2) was “∼ 71%” and the “Gene Expression (% mRNA vs. control) FGF-1” value (FGF-1) was “∼ 77%”. For the same compound, the “Invasion Assay U87MG” value ([4]; Conc. 1.1µM) was “++ (++: 50-90%)”, the “Invasion Assay HT1080” value ([5]; Conc. 1.1µM) was “++ (++: 50-90%)” and the “Invasion Assay U2OS” value ([6]; Conc. 1.1µM) was “++ (++: 50-90%)”. For the same compound, the “Gene Expression (% mRNA vs. control) MMP-9” value (MMP-9) was “∼ 52%”.
